Measured values as given in US20250339567A1, “COMPOUNDS WITH IMPROVED PHARMACOKINETICS FOR IMAGING AND THERAPY OF CANCER” (priority 2019, published 2025).
“Also recorded” adds a separate entry of the source. Read-outs that look alike come from different tables or passages of the source. Starred links: 1 amine or outer side, 2 acyl side, 3 side chain; linkers in the order of their positions; H or OH if unused. Non-standard residues stand in square brackets, D forms with d. Residues, ends and D or L forms follow the SMILES beside them. *: point of attachment. DOTA = O=C(O)CN1CCN(CC(=O)O)CCN(CC(=O)*)CCN(CC(=O)O)CC1; Sta = CC(C)C[C@H](N)[C@@H](O)CC(=O)O; Bta = N[C@@H](Cc1csc2ccccc12)C(=O)O; X1 = O=C(CN1CCC(N[*:1])CC1)[*:2]

Key:
[1] = Plasma studies: metabolic stability in vitro in human plasma (radio RP-HPLC); format: in vitro ADME
Outline: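 Radiotracer incubated in human or murine plasma at 37° C. immediately after labeling, for 72±2 h or 6±0.5 h. Proteins precipitated with ice-cold EtOH and MeCN and centrifuged. Supernatant analysed by radio RP-HPLC.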

[2] = Plasma studies: metabolic stability in vitro in murine plasma (radio RP-HPLC); format: in vitro ADME; details: 37° C.
Method: Metabolic stability in vitro was determined applying a procedure published by Linder et al. that was slightly modified. Immediately after labeling, human (200 μL) or murine (100 μL) plasma was added and the mixture was incubated at 37° C. for 72±2 h (or 6±0.5 h). Proteins were precipitated by treatment with ice-cold EtOH (150 μL [human], 100 μL [murine]) and ice-cold MeCN (450 μL [human], 300 μL [murine]), followed by centrifugation for 20 min at 13000 rpm. The supernatants were decanted and further analyzed using radio RP-HPLC.
Therefore, only 100 μL of murine plasma was added to the tracer solution (final volume of 200 μL) immediately after labeling was finished. According to Linder et al. (Bioconjugate Chem. 20, 1171-1178 (2009)), metabolism is more rapid in murine than in human plasma for which reason the experiment was terminated after incubation at 37° C. for 6±0.5 h (FIGS. 5 and 6). Nevertheless, due to a smaller volume the murine mixture was additionally examined after incubation at 37° C. for 72±2 h (FIGS. 7 and 8).

[3] = system: PC-3 tumor-bearing CB17-SCID mice; experiment: Biodistribution in PC-3 tumor-bearing CB17-SCID mice; format: in vivo
Method: All animal experiments were conducted in accordance with general animal welfare regulations in Germany (German animal protection act, as amended on 18 May 2018, Art. 141 G v. 29.3.2017 | 626, approval no. ROB-55.2-2532.Vet_02-18-109) and the institutional guidelines for the care and use of animals. To establish tumor xenografts, PC-3 cells (5×10^6 cells per 200 μL) were suspended in a 1:1 mixture (v/v) of Dulbecco's modified eagle's medium/Ham's F-12 (DMEM/F-12) with Glutamax-I (1:1) and Cultrex® Basement Membrane Matrix Type 3 (Trevigen Inc., Gaithersburg, MD, USA) and inoculated subcutaneously onto the right shoulder of 6-10 weeks old female CB17-SCID mice (Charles River Laboratories International Inc., Sulzfeld, Germany). Mice were used for experiments when tumor volume was 125-500 mm^3 (2-3 weeks after inoculation).
Approximately 1-5 MBq ([…]) of the radiolabeled GRPR antagonists were injected into the tail vein of PC-3 tumor-bearing mice and sacrificed at 1, 4 or 24 h p.i. (n=4). Selected organs were removed, weighted and measured in a γ-counter (Perkin Elmer, Waltham, MA, USA).

GRPR = target: T1, GRPR (Homo sapiens, UniProt P30550); experiment: Determination of GRPR affinity (IC50), competition with [D-3-[125I]I-Tyr6]MJ9 on PC-3 cells; format: binding
T1 construct: endogenous in cells; host or cells: PC-3 cells
Method: The reference ligand for IC50 studies ([D-3-[^125I]I-Tyr^6]MJ9) is prepared according to a previously published procedure. Briefly, 0.2 mg of [D-Tyr^6]MJ9 are dissolved in 20 μL Tracepur water and 280 μL TRIS buffer (25 mm TRIS HCl, 0.4 M NaCl, pH=7.9). After addition of the solution to a vial containing 150 μg Iodo-Gen® (1,3,4,6-Tetrachloro-3α,6α-diphenylglycouril, surface-bound), 5.0 μL (16 MBq) [^125I]Nal(74 TBq/mmol, 3.1 GBq/mL, 40 mM NaOH, Hartmann Analytic, Braunschweig, Germany) are added.
The GRPR-positive PC-3 cells are cultured in Dublecco modified Eagle medium/Nutrition Mixture F-12 with Glutamax-I (1:1) (Invitrigon), supplemented with 10% fetal calf serum and maintained at 37° C. in a humidified 5% CO2 atmosphere.
After removal of the culture medium, the cells are washed once with 500 μL of HBSS (Hank's balanced salt solution, Biochrom, Berlin, Germany, with addition of 1% bovine serum albumin (BSA)) and left in 200 μL HBSS (1% BSA) for 9 min at room temperature for equilibration. Next, 25 μL per well of solutions, containing either HBSS (1% BSA) as control or the respective ligand in increasing concentration (10^−10 M-10^−4 M in HBSS), are added with subsequent addition of 25 μL of [D-3-[^125I]I-Tyr^6]MJ9 (2.0 nM) in HBSS (1% BSA).
All experiments are performed in triplicate for each concentration. After 2 h incubation at room temperature, the experiment is terminated by removal of the medium and consecutive rinsing with 300 μL of HBSS. The media of both steps are combined in one fraction and represent the amount of free radiolabeled reference. Afterwards, the cells are lysed with 300 μL of 1 M NaOH for at least 15 min and united with the 300 μL NaOH of the following washing step. Quantification of bound and free radiolabeled reference is accomplished in a γ-counter.
IC50 determination for each ligand was repeated twice.

[4] = n-Octanol-PBS distribution coefficient, log D7.4; format: physicochemical; details: n-octanol/PBS pH 7.4; for log D7.4 ± SD (n = 8): 177Lu-labeled ligand
Method: Approximately 1 MBq of the labeled tracer was dissolved in 1 mL of a 1:1 mixture (v/v) of phosphate buffered saline (PBS, pH=7.4) and n-octanol in an Eppendorf tube. After vigorous mixing of the suspension for 3 min at room temperature, the vial was centrifuged at 9000 rpm for 5 min (Biofuge 15, Heraus Sepatech, Osterode, Germany) and 200 μL aliquots of both layers were measured in a γ-counter. The experiment was repeated at least four times.

PC-3 cells = experiment: Internalization into PC-3 cells; format: cell-based; details: c = 1 nM, 1 h, 37° C., corrected for non-specific binding (10^-3 M [natLu]RM2)
Method: For internalization studies, PC-3 cells are harvested 24±2 h before the experiment and seeded in 24-well plates (1.5×10^5 cells/well, 1 mL). Subsequent to the removal of the culture medium, the cells are washed once with 500 μL DMEM/F-12 (5% BSA) and left to equilibrate at 37° C. for at least 15 min in 200 μL DMEM/F-12 (5% BSA). […] Next, 25 μL of the ^125I/^177Lu-labeled GRPR ligand (10 nm) is added and the cells are incubated at 37° C. for 60 min.
The experiment is terminated by placing the 24-well plate on ice for 1 min and consecutive removal of the medium. Each well is rinsed with 300 μL ice-cold PBS and the fractions from these first two steps are combined, representing the amount of free radiolabeled reference. Removal of surface bound activity is accomplished by incubation of the cells with 300 μL of ice-cold Acid Wash solution (0.02 M NaOAc, pH=5.0) for 10 min at room temperature and rinsed again with 300 μL of ice-cold PBS. The internalized activity is determined by incubation of the cells in […] NaOH (1 M) and the combination with the fraction of a subsequent washing step with 300 μL NaOH (1 M).
Each experiment (control and blockade) is performed sixfold. Free, surface bound and internalized activity is quantified in a γ-counter. Data is corrected for non-specific internalization.

[5] = human plasma, 37° C., 72±2 h, FIGS. 1-4
[6] = IC50 [nM] ± SD (n = 3), ^177Lu-labeled, Table 1C, GRPR affinity
[7] = IC50 ± SD (n = 3), Table 3, [D-3-[125I]I-Tyr6]MJ9 (c = 0.2 nM), 2 h, r.t., HBSS + 1% BSA

T1 sequence (P30550 whole entry): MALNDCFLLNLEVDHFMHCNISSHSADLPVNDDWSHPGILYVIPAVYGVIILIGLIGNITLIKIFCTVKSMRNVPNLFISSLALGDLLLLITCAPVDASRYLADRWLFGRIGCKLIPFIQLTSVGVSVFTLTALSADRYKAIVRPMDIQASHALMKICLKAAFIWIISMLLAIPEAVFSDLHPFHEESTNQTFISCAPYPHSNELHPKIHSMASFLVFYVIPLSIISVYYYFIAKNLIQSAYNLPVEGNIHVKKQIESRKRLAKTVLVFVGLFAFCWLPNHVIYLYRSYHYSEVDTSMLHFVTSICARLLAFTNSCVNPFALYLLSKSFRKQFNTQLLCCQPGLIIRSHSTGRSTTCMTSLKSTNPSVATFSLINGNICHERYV

CC(C)C[C@H](NC(=O)C[C@H](O)[C@H](CC(C)C)NC(=O)[C@H](Cc1c[nH]cn1)NC(=O)CNC(=O)[C@@H](NC(=O)[C@H](C)NC(=O)[C@H](Cc1c[nH]c2ccccc12)NC(=O)[C@H](CCC(N)=O)NC(=O)[C@@H](Cc1ccccc1)NC(=O)CN1CCC(NC(=O)CN2CCN(CC(=O)O)CCN(CC(=O)O)CCN(CC(=O)O)CC2)CC1)C(C)C)C(N)=O [RM2, DOTA-Pip-D-Phe-Gln-Trp-Ala-Val-Gly-His-Sta-Leu-NH2]
Amount of intact tracer after incubation in human plasma for 72 ± 2 h (n = 2) ([1]; Table 1C, 177Lu-labeled, 37° C., 72 ± 2 h, in % (unit assumed)): 33.5 ± 2.7 | amount of intact tracer (in vitro stability), mean ± SD ([1]; human plasma, 37° C., 72±2 h): 33.5±2.7% | metabolite, first-eluting peak in chromatogram [1, 5]: 54% | metabolite, second peak in chromatogram [1, 5]: 9% | remaining intact tracer in chromatogram ([1]; human plasma, 37° C., 72±2 h, single chromatogram (FIGS. 1-4)): 36% | metabolite, first-eluting peak in chromatogram ([2]; 6±0.5 h): 2% | metabolite, second peak in chromatogram ([2]; 6±0.5 h): 2% | metabolite, third peak in chromatogram ([2]; 6±0.5 h): 4% | remaining intact tracer in chromatogram ([2]; 6±0.5 h, FIGS. 5-6): 92% | remaining intact tracer in chromatogram ([2]; 72±2 h, FIGS. 7-8): 67% | tumor retention ([3]; 177Lu-labeled, 24 h p.i., 100 pmol, FIGS. 11, 18, listed as [^177Lu]RM2): high amounts; also recorded: higher tumor retention than the other derivatives of this series

CC(C)C[C@H](NC(=O)C[C@H](O)[C@H](CC(C)C)NC(=O)[C@H](Cc1c[nH]cn1)NC(=O)CNC(=O)[C@@H](NC(=O)[C@H](C)NC(=O)[C@H](Cc1csc2ccccc12)NC(=O)[C@H](CCC(N)=O)NC(=O)[C@@H](Cc1ccccc1)NC(=O)CN1CCC(NC(=O)CN2CCN(CC(=O)O)CCN(CC(=O)O)CCN(CC(=O)O)CC2)CC1)C(C)C)C(N)=O [DOTA-[Bta^8]MJ9] ({DOTA}-[X1][dF]Q[Bta]AVGH[Sta]L-NH2)
IC50 (GRPR; [6]): 4.6 ± 0.2 nM | IC50 (GRPR; [7]): 4.63 ± 0.23 nM | Amount of intact tracer after incubation in human plasma for 72 ± 2 h (n = 2) [1]: 18.3 ± 2.3 | metabolite, first-eluting peak in chromatogram [1]: 79% | metabolite, second peak in chromatogram [1]: 8% | remaining intact tracer in chromatogram ([1]; human, plasma, 2 h): 12% | log D7.4 ± SD (n = 8) [4]: −1.81 ± 0.02 | Specific internalization (mean ± SD, n = 6) (PC-3 cells): 2.26 ± 0.18 % of the used activity

CC(C)C[C@H](NC(=O)C[C@H](O)[C@H](CC(C)C)NC(=O)[C@H](Cc1c[nH]cn1)NC(=O)CNC(=O)[C@@H](NC(=O)[C@H](C)NC(=O)[C@](C)(Cc1c[nH]c2ccccc12)NC(=O)[C@H](CCC(N)=O)NC(=O)[C@@H](Cc1ccccc1)NC(=O)CN1CCC(NC(=O)C(CNCCN)CNCCN)CC1)C(C)C)C(N)=O [N4-[α-Me-Trp^8]MJ9]
log D7.4 (n = 6), ^99mTc-labeled [4]: −1.29 ± 0.08 | tumor accumulation at 4 h p.i. compared to 1 h p.i. ([3]; mouse, in vivo): enhanced tumor accumulation compared to 1 h p.i.

CC(C)C[C@H](NC(=O)C[C@H](O)[C@H](CC(C)C)NC(=O)[C@H](Cc1c[nH]cn1)NC(=O)CNC(=O)[C@@H](NC(=O)[C@H](C)NC(=O)[C@H](Cc1c[nH]c2ccccc12)NC(=O)[C@H](CCO)NC(=O)[C@@H](Cc1ccccc1)NC(=O)CN1CCC(NC(=O)C(CNCCN)CNCCN)CC1)C(C)C)C(N)=O [N4-[Hse^7]MJ9]
IC50 (GRPR; IC50 [nM] ± SD (n = 3), Table 5, non-labeled N4 ligands, [D-3-[125I]I-Tyr6]MJ9 (c = 0.2 nM), 2 h, r.t.): 6.97 ± 1.84 nM | log D7.4 (n = 6), ^99mTc-labeled [4]: −1.26 ± 0.02 | tumor-to-background ratios ([3]; mouse, in vivo): highest

CC(C)C[C@H](NC(=O)C[C@H](O)[C@H](CC(C)C)NC(=O)[C@H](Cc1c[nH]cn1)NC(=O)CNC(=O)[C@@H](NC(=O)[C@H](C)NC(=O)[C@H](Cc1c[nH]c2ccccc12)NC(=O)[C@H](CCC(N)=O)NC(=O)[C@@H](Cc1ccc(O)c(I)c1)NC(=O)CN1CCC(N)CC1)C(C)C)C(N)=O [[D-3-I-Tyr^6]MJ9, reference compound]
IC50 (GRPR; [7]): 1.33 ± 0.36 nM | IC50 ± SD (n = 3) (GRPR; Table 3, [D-3-[125I]I-Tyr6]MJ9 (c = 0.2 nM), 2 h, r.t., HBSS + 1% BSA): particularly high affinity | Specific internalization (mean ± SD, n = 6) (PC-3 cells): 3.57 ± 0.57 % of the used activity

CC(C)C[C@H](NC(=O)C[C@H](O)[C@H](CC(C)C)NC(=O)[C@H](Cc1c[nH]cn1)NC(=O)CNC(=O)[C@@H](NC(=O)[C@H](C)NC(=O)[C@H](Cc1c[nH]c2ccccc12)NC(=O)[C@H](CCO)NC(=O)[C@@H](Cc1ccccc1)NC(=O)CN1CCC(NC(=O)CN2CCN(CC(=O)O)CCN(CC(=O)O)CCN(CC(=O)O)CC2)CC1)C(C)C)C(N)=O [DOTA-[Hse^7]MJ9]
IC50 (GRPR; [6]): 19.7 ± 1.6 nM | Amount of intact tracer after incubation in human plasma for 72 ± 2 h (n = 2) [1]: 40.1 ± 1.4 | metabolite, first-eluting peak in chromatogram [1]: 30% | metabolite, second peak in chromatogram [1]: 8% | remaining intact tracer in chromatogram ([1]; human, plasma, 2 h): 56% | log D7.4 ± SD (n = 8) [4]: −2.25 ± 0.06 | Specific internalization (mean ± SD, n = 6) (PC-3 cells): 1.40 ± 0.16 % of the used activity
